Measurements: ChEMBL document CHEMBL4130359, “Indazole-based ligands for estrogen-related receptor α as potential anti-diabetic agents” (Eur J Med Chem, 2017)
Activity calls are given as the source filed them. The rule behind the calls is not given here.

Legend:
[1] = test system: Rattus norvegicus; assay: Increase in ANGPTL4 mRNA expression in epididymal white adipose tissue of Zucker rat sub-chronic fa/fa prediabetic model at 10 mg/kg, po qd for 15 days by RT-PCR method; format: functional, organism-based
[2] = test system: Rattus norvegicus; assay: Effect on PTGS2 gene expression in epididymal white adipose tissue of Zucker rat sub-chronic fa/fa prediabetic model at 10 mg/kg, po qd for 15 days by microarray analysis relative to control; format: functional
[3] = test system: Rattus norvegicus; assay: Effect on HLA-DRA gene expression in epididymal white adipose tissue of Zucker rat sub-chronic fa/fa prediabetic model at 10 mg/kg, po qd for 15 days by microarray analysis relative to control; format: functional
[4] = test system: Rattus norvegicus; assay: Toxicity in Zucker rat sub-chronic fa/fa prediabetic model assessed as epididymal white adipose tissue weight at 1 mg/kg, po qd for 31 days measured on day 32 (reference value: 13.9 +/- 0.6 g); format: organism-based; conditions: in vivo, 744 h
[5] = test system: Rattus norvegicus; assay: Increase in PCK1 mRNA expression in epididymal white adipose tissue of Zucker rat sub-chronic fa/fa prediabetic model at 10 mg/kg, po qd for 15 days by RT-PCR method; format: functional, organism-based
[6] = test system: Rattus norvegicus; assay: Toxicity in […] chronic ob/ob model assessed as epididymal white adipose tissue weight at 3 mg/kg, po qd for 31 days measured on day 32 (reference value: 3.92 +/- 0.14 g); format: organism-based; conditions: in vivo, 744 h
[7] = test system: Rattus norvegicus; assay: Antidiabetic activity in po dosed Zucker rat sub-chronic fa/fa prediabetic model assessed as reduction in blood glucose AUC (0 to 120 min) once daily for 31 days measured on day 29 post dose by OGTT; format: functional, organism-based
[8] = AUC (0 to 24 hrs) in Zucker rat sub-chronic fa/fa prediabetic model at 50 mg/kg, po qd measured on day 1 post dose; format: ADME, organism-based; parameters: dose 50 mg/kg, time < 24 hr, route oral; conditions: in vivo
[9] = test system: Rattus norvegicus; assay: Toxicity in Zucker rat sub-chronic fa/fa prediabetic model assessed as serum AST level at 10 mg/kg, po qd for 31 days measured on day 32 (reference value: 187 +/- 37 U/L); format: organism-based; conditions: in vivo, 744 h
[10] = test system: Rattus norvegicus; assay: Effect on ACOT4 gene expression in epididymal white adipose tissue of Zucker rat sub-chronic fa/fa prediabetic model at 10 mg/kg, po qd for 15 days by microarray analysis relative to control; format: functional
[11] = AUC (0 to 24 hrs) in […] model at 10 mg/kg, po qd measured on day 1 post dose; format: ADME, organism-based; parameters: dose 10 mg/kg, time < 24 hr, route oral; conditions: in vivo
[12] = test system: Rattus norvegicus; assay: Toxicity in […] chronic ob/ob model assessed as serum creatinine level at 3 mg/kg, po qd for 31 days measured on day 32 (reference value: 0.55 +/- 0.018 mg/dl); format: organism-based; conditions: in vivo, 744 h
[13] = test system: Rattus norvegicus; assay: Effect on ADRA2C gene expression in epididymal white adipose tissue of Zucker rat sub-chronic fa/fa prediabetic model at 10 mg/kg, po qd for 15 days by microarray analysis relative to control; format: functional
[14] = test system: Rattus norvegicus; assay: Effect on CHUK gene expression in epididymal white adipose tissue of Zucker rat sub-chronic fa/fa prediabetic model at 10 mg/kg, po qd for 15 days by microarray analysis relative to control; format: functional
[15] = test system: Rattus norvegicus; assay: Effect on PFKFB1 gene expression in epididymal white adipose tissue of Zucker rat sub-chronic fa/fa prediabetic model at 10 mg/kg, po qd for 15 days by microarray analysis relative to control; format: functional
[16] = test system: Rattus norvegicus; assay: Toxicity in […] model assessed as liver weight at 50 mg/kg, po qd for 31 days measured on day 32 (reference value: 2.77 +/- 0.16 g); format: organism-based; conditions: in vivo, 744 h
[17] = test system: Rattus norvegicus; assay: Toxicity in Zucker rat sub-chronic fa/fa prediabetic model assessed as liver weight at 1 mg/kg, po qd for 31 days measured on day 32 (reference value: 28 +/- 1.6 g); format: organism-based; conditions: in vivo, 744 h
[18] = test system: Rattus norvegicus; assay: Toxicity in Zucker rat sub-chronic fa/fa prediabetic model assessed as food intake at 50 mg/kg, po qd for 29 days measured on day 1 to 29 during compound dosing (reference value: 969 +/- 18 g); format: organism-based; conditions: in vivo, 696 h
[19] = test system: Rattus norvegicus; assay: Toxicity in Zucker rat sub-chronic fa/fa prediabetic model assessed as serum triglyceride level at 1 mg/kg, po qd for 31 days measured on day 32 (reference value: 1382 +/- 268 mg/dl); format: organism-based; conditions: in vivo, 744 h
[20] = test system: Rattus norvegicus; assay: Toxicity in Zucker rat sub-chronic fa/fa prediabetic model assessed as serum AST level at 3 mg/kg, po qd for 31 days measured on day 32 (reference value: 187 +/- 37 U/L); format: organism-based; conditions: in vivo, 744 h
[21] = test system: Rattus norvegicus; assay: Toxicity in Zucker rat sub-chronic fa/fa prediabetic model assessed as body weight at 10 mg/kg, po qd for 29 days measured on day 29 post last dose (reference value: 533 +/- 10 g); format: organism-based; conditions: in vivo, 696 h
[22] = test system: Rattus norvegicus; assay: Toxicity in […] model assessed as serum BUN level at 3 mg/kg, po qd for 31 days measured on day 32 (reference value: 28.3 +/- […]); format: organism-based; conditions: in vivo, 744 h
[23] = Tmax in CD-1 mouse at 20 mg/kg administered via oral gavage by LC-MS analysis; format: ADME, organism-based; conditions: in vivo
[24] = test system: Rattus norvegicus; assay: Effect on ACOX1 gene expression in epididymal white adipose tissue of Zucker rat sub-chronic fa/fa prediabetic model at 10 mg/kg, po qd for 15 days by microarray analysis relative to control; format: functional
[25] = test system: Rattus norvegicus; assay: Effect on NDUFB10 gene expression in epididymal white adipose tissue of Zucker rat sub-chronic fa/fa prediabetic model at 10 mg/kg, po qd for 15 days by microarray analysis relative to control; format: functional
[26] = test system: Rattus norvegicus; assay: Toxicity in Zucker rat sub-chronic fa/fa prediabetic model assessed as liver weight at 3 mg/kg, po qd for 31 days measured on day 32 (reference value: 28 +/- 1.6 g); format: organism-based; conditions: in vivo, 744 h
[27] = test system: Rattus norvegicus; assay: Toxicity in […] chronic ob/ob model assessed as change in body weight at 10 mg/kg, po qd for 28 days measured on day 1 to 28 during compound dosing (reference value: 9.9 +/- 1.27 g); format: organism-based; conditions: in vivo, 672 h
[28] = test system: Rattus norvegicus; assay: Toxicity in Zucker rat sub-chronic fa/fa prediabetic model assessed as change in body weight at 10 mg/kg, po qd for 29 days measured on day 1 to 29 during compound dosing (reference value: 140 +/- 7 g); format: organism-based; conditions: in vivo, 696 h
[29] = test system: Rattus norvegicus; assay: Effect on TNFRSF1B gene expression in epididymal white adipose tissue of Zucker rat sub-chronic fa/fa prediabetic model at 10 mg/kg, po qd for 15 days by microarray analysis relative to control; format: functional
[30] = test system: Rattus norvegicus; assay: Effect on PCCB gene expression in epididymal white adipose tissue of Zucker rat sub-chronic fa/fa prediabetic model at 10 mg/kg, po qd for 15 days by microarray analysis relative to control; format: functional
[31] = Cmax in Zucker rat sub-chronic fa/fa prediabetic model at 1 mg/kg, po qd for 26 days measured on day 26 post last dose; format: ADME, organism-based; parameters: dose 1 mg/kg, route oral; conditions: in vivo
[32] = test system: Rattus norvegicus; assay: Effect on ALDH3B1 gene expression in epididymal white adipose tissue of Zucker rat sub-chronic fa/fa prediabetic model at 10 mg/kg, po qd for 15 days by microarray analysis relative to control; format: functional
[33] = test system: Rattus norvegicus; assay: Effect on GNPAT gene expression in epididymal white adipose tissue of Zucker rat sub-chronic fa/fa prediabetic model at 10 mg/kg, po qd for 15 days by microarray analysis relative to control; format: functional

## CN1CC[C@@H](N2C(=O)S/C(=C\c3ccc4c(cnn4Cc4ccc(Cl)cc4C(F)(F)F)c3)C2=O)[C@H](F)C1
[1]
  Activity: Active
[2]
  fold change (FC): -1.389
[3]
  fold change (FC): -1.201
[4]
  Activity: 16.9 g
[5]
  Activity: Active
[6]
  Activity: 3.44 g
[7]
  Activity: Dose-dependent effect
[8]
  AUC(0-t) at 24 h: 92000 ng·h/mL
[9]
  Activity: 98 U/L
[10]
  fold change (FC): 2.122
[11]
  AUC(0-t) at 24 h: 3940 ng·h/mL
[12]
  Activity: 0.5 mg/dL
[13]
  fold change (FC): -1.52
[14]
  fold change (FC): 1.379
[15]
  fold change (FC): 1.634
[16]
  Activity: 2.61 g
[17]
  Activity: 21.9 g
[18]
  Activity: 1049 g
[19]
  Activity: 1040 mg/dL
[20]
  Activity: 111 U/L
[21]
  Activity: 551 g
[22]
  Activity: 25.5 mg/dL
[23]
  Tmax: 1.5 h
[24]
  fold change (FC): 1.495
[25]
  fold change (FC): 1.237
[26]
  Activity: 20.6 g
[27]
  Activity: 8.7 g
[28]
  Activity: 150 g
[29]
  fold change (FC): -1.505
[30]
  fold change (FC): -1.413
[31]
  Cmax: 316 ng/mL
[32]
  fold change (FC): -1.554
[33]
  fold change (FC): 1.212
